Measured values from patent US9981938B2, “Quaternary ammonium alkyl esters as stable prodrugs” (ALLERGAN, INC., priority 2014, dated 2018).

Experiment: Stability of compounds in aqueous solution
Format: physicochemical
Conditions: compound dissolved in aqueous solution, in %; for stability, 25° C./ 7 days: maintained at 25° C. for 7 days; for stability, 25° C./ 14 days: maintained at 25° C. for 14 days; for stability, 40° C./ 7 days: maintained at 40° C. for 7 days
Procedure: In some embodiments the stability of the compound is such that, when stored in an aqueous solution at 25° C. for 7 days or 14 days, at least about 70%, at least about 80%, at least about 90%, at least about 95%, at least about 97%, at least about 99% of the original compound, and up to about 100% of the original compound remains in the solution. In some embodiments, the stability of the compound is such that at least about 70%, at least about 80%, at least about 90%, at least about 95%, at least about 97%, at least about 99% of the original compound, and up to about 100% of original compound remains after 7 days of storage in an aqueous solution at 40° C.
The following Table 1 depicts various embodiments indicating the stability of compounds depicted by their respective structures in the table. The compounds were dissolved in an aqueous solution, and maintained at the indicated temperatures, for 7 to 14 days, as indicated.

Row | Structure (SMILES) | stability, 25° C./ 7 days | stability, 25° C./ 14 days | stability, 40° C./ 7 days
1 | CN(C)c1ccc(OC(=O)c2ccc(CCC[C@@H]3[C@@H](CCc4cc(Cl)cc(Cl)c4)[C@H](O)C[C@H]3Cl)s2)cc1 [Compound 4, 5-(3-{(1R, 2R, 3R, 5R)-5-Chloro-2-[2-(3,5-dichlorophenyl)ethyl]-3-hydroxycyclopentyl}-propyl)thiophene-2-carboxylic acid 4-dimethylaminophenyl ester] | 98.7 | 100.2 | 96.0
2 | CN(C)Cc1ccc(OC(=O)c2ccc(CCC[C@@H]3[C@@H](CCc4cc(Cl)cc(Cl)c4)[C@H](O)C[C@H]3Cl)s2)cc1 [Compound 2, 5-(3-{(1R, 2R, 3R, 5R)-5-Chloro-2-[2-(3,5-dichlorophenyl)ethyl]-3-hydroxycyclopentyl}-propyl)thiophene-2-carboxylic acid 4-dimethylaminomethyl phenyl ester] | 96.4 | 95.2 | 78.0
3 | CC(CCN1CCOCC1)OC(=O)c1ccc(CCC[C@@H]2[C@@H](CCc3cc(Cl)cc(Cl)c3)[C@H](O)C[C@H]2Cl)s1 (stereo partly drawn) [Compound 5, 5-(3-{(1R, 2R, 3R, 5R)-5-Chloro-2-[2-(3,5-dichlorophenyl)ethyl]-3-hydroxycyclopentyl}propyl)thiophene-2-carboxylic acid, 1-methyl-3-morpholin-4-yl propyl ester] | 98.5 | 95.4 | 89.3
4 | CC(CN(C)C)OC(=O)c1ccc(CCC[C@@H]2[C@@H](CCc3cc(Cl)cc(Cl)c3)[C@H](O)C[C@H]2Cl)s1 (stereo partly drawn) [Compound 7, 5-(3-{(1R, 2R, 3R, 5R)-5-Chloro-2-[2-(3,5-dichlorophenyl)ethyl]-3-hydroxycyclopentyl}propyl)thiophene-2-carboxylic acid, 2-dimethylamino-1-methyl ethyl ester] | 94.3 | 78.5 | 70.3
5 | O=C(Oc1ccc(CN2CCOCC2)cc1)c1ccc(CCC[C@@H]2[C@@H](CCc3cc(Cl)cc(Cl)c3)[C@H](O)C[C@H]2Cl)s1 [Compound 3, 5-(3-{(1R, 2R, 3R, 5R)-5-Chloro-2-[2-(3,5-dichlorophenyl)ethyl]-3-hydroxycyclopentyl}-propyl)thiophene-2-carboxylic acid 4-morpholin-4-ylmethyl phenyl ester] | 97.3 | 97.3 | 91.7

More lines, now with the values ahead:

Row | stability, 25° C./ 7 days | stability, 25° C./ 14 days | stability, 40° C./ 7 days | Structure (SMILES)
6 | 103.0 | 102.9 | 98.0 | O=C(OCCCN1CCOCC1)c1ccc(CCC[C@@H]2[C@@H](CCc3cc(Cl)cc(Cl)c3)[C@H](O)C[C@H]2Cl)s1 [Compound 6, 5-(3-{(1R, 2R, 3R, 5R)-5-Chloro-2-[2-(3,5-dichlorophenyl)ethyl]-3-hydroxycyclopentyl}propyl)thiophene-2-carboxylic acid, 3-morpholin-4-yl propyl ester]
7 | 95.8 | 84.6 | 79.1 | CCN(CC)CCOC(=O)c1ccc(CCC[C@@H]2[C@@H](CCc3cc(Cl)cc(Cl)c3)[C@H](O)C[C@H]2Cl)s1 [Compound 8, 5-(3-{(1R, 2R, 3R, 5R)-5-Chloro-2-[2-(3,5-dichlorophenyl)ethyl]-3-hydroxycyclopentyl}-propyl)thiophene-2-carboxylic acid, 2-diethylaminoethyl ester]
8 | 100.5 | 101.1 | 101.8 | CC[N+](C)(CC)CCCOC(=O)c1ccc(CCC[C@@H]2[C@@H](CCc3cc(Cl)cc(Cl)c3)[C@H](O)C[C@H]2Cl)s1 [Compound 9, {3-[5-(3-{(1R, 2R, 3R, 5R)-5-Chloro-2-[2-(3,5-dichlorophenyl)ethyl]-3-hydroxycyclopentyl}-propyl)thiophene-2-carbonyloxy]propyl}diethyl methyl ammonium iodide]
